Data on four compounds can be found in patent US10682415B2, “Thermogel formulation for combination drug delivery” (Wisconsin Alumni Research Foundation, priority 2013, dated 2020).

Molecules are shown by their SMILES.

The conditions of data set [1]: neutral pH; cited from earlier work.
In data set [2] the test system is ES-2-luc human ovarian cancer cells. The data set is described as follows: In vitro cytotoxicity in ES-2-luc cells.
Data set [3] is described as follows: Initial gel formation experiments (stable thermogel with PLGA-PEG-PLGA). In kind it is physicochemical. The note with it: for Thermogel Formation: drug(s) with PLGA-PEG-PLGA polymer, about 1 mg drug per 10 mg polymer.
Data set [4] can be described thus: Drug release kinetics of thermogel at 37° C. (cassette MWCO 20,000, first-order model). It is filed as physicochemical. The method, then: The drug release kinetics of the composition at 37° C. was evaluated. Data is shown below in Table 1-3. […] Each cassette (MWCO 20,000) contained 0.3 mL of Triogel (n=3). […] The profile of the release kinetics was fit into a first-order model (Prism ver 5.0), as illustrated in FIG. 2.
The release kinetics of 1-drug thermogels (37° C.) were analyzed. Separately, compositions having 6 mg, 6 mg, and 3 mg of PTX, 17-AAG, and RAPA mixed with 60, 60, and 30 mg of polymers, respectively, in 1.0 mL of water were evaluated. Each cassette (MWCO 20,000) contained 0.3 mL of Thermogel (n=3). Profile of release kinetics was fit into a first-order model (Prism ver 5.0).

Data set [5] in a line: Rehydration time, gelation time and physical observation of lyophilized sample and gel. In kind it is physicochemical. The method, then:
(§1) The drug delivery system containing a combination of three drugs can be prepared as follows. Paclitaxel (PTX; 6 mg), 17-AAG (6 mg), and rapamycin (RAPA; 3 mg) were combined with 1.5 mL of tent-Butanol (TBA) to obtain a clear solution at 60° C. Separately, cold water was added to PLGA1.5k-PEG1k-PLGA1.5k and the mixture was incubated at refrigeration temperature (4° C.) for 2-3 days to obtain 100 mg/mL of polymer solution. The polymer solution (1.5 mL) was rapidly added to 1.5 mL of drug/TBA mixture (50% TBA). The mixture was rapidly vortexed and warmed to 60° C. for less than one minute to prevent phase separation. The mixture was rapidly frozen with ethanol/dry ice (−72° C.) for 1 hour and lyophilized for 24 hours (below 0.8 bar at −45° C.).
(§2) Samples were diluted with cold water and kept at 4° C. Liquefied samples were passed through about […] (e.g., clear solution (x)) to about 0.2 μm (e.g., clear solution (y)) of a regenerated cellulose membrane filter (RC filter) at 4° C. and concentrations were quantified using RP-HPLC.
In general, an elegant lyophilized cake can improve rehydration time and solubility of the lyophilized cake in aqueous solution.

Data set [6] can be described thus: Drug content incorporated in thermogel quantified by RP-HPLC. In kind it is physicochemical. The method, then:
as §1, §2

As a reminder, the IC50 is the midpoint of a concentration-inhibition curve. For the compound `C=CCNC1=C2C[C@@H](C)C[C@H](OC)[C@H](O)[C@@H](C)/C=C(\C)[C@H](OC(N)=O)[C@@H](OC)/C=C\C=C(/C)C(=O)NC(=CC1=O)C2=O` [17-AAG, 17-allylamino-17-demethoxygeldanamycin], in data set [1], the water solubility result is recorded as “about 0.1 mg/mL”. Also, the “cytotoxic effect (in words)” value in data set [2] is “did not induce significant cytotoxic effect”. Also, the IC50 in data set [2] (drug(s) dissolved in a mixture of DMSO and medium) worked out at 933.6 ± 1.8 nM.

With `CC1=C2C[C@H]3[C@@H](CC=C4C[C@@H](O)CC[C@@]43C)[C@@H]2CC[C@]12O[C@@H]1C[C@H](C)CN[C@H]1[C@H]2C` [Cyclopamine (CYP), cyclopamine], the “Thermogel Formation” value in data set [3] is on record as “No”. In data set [3] (warming the 4° C. solution with PLGA-PEG-PLGA to room temperature / 37° C.), the “stable thermogel formation / gel integrity” value is “a stable thermogel was unable to be prepared”.

With `CC(=O)O[C@H]1C(=O)[C@@]2(C)[C@H]([C@H](OC(=O)c3ccccc3)[C@]3(O)C[C@H](OC(=O)[C@H](O)[C@@H](NC(=O)c4ccccc4)c4ccccc4)C(C)=C1C3(C)C)[C@]1(OC(C)=O)CO[C@@H]1C[C@@H]2O` [PTX, paclitaxel], the “k: release kinetic constant” value in data set [4] (release from Triogel (6 mg/6 mg/3 mg PTX/17-AAG/RAPA, 150 mg polymer, 1 mL water), n = 3) came to 0.0577 ± 0.0230 h⁻¹. Moreover, the “k (release kinetic constant)” value in data set [4] (release from two drug thermogel PTX/17-AAG (6 mg/6 mg in 120 mg polymer, 1 mL water)) amounted to 0.2037 ± 0.0575 h⁻¹; in data set [4] (release from two drug thermogel PTX/RAPA (6 mg/3 mg in 90 mg polymer, 1 mL water)) it was 0.1035 ± 0.0354 h⁻¹; in data set [4] (single drug compositions, n = 3) it was 0.0682 ± 0.0112 h⁻¹. Besides, the “time to form a gel at room temperature” value in data set [5] (room temperature) was “less than two minutes”. The “time gel-like form is retained” value in data set [5] (room temperature, 6 mg PTX in 150 mg of polymer) is recorded as “more than two weeks”. For the same compound, in data set [5] (single, two and three drug compositions), the “Physical obs. of gel” value is “Good”. In addition, the “Thermogel Formation” value in data set [3] was “Yes”. For the same compound, in data set [6] (6 mg PTX in 150 mg of polymer and 50 wt. % TBA), the “PTX gel incorporation by RP-HPLC analysis” value is on record as 5.33 mg. Also, the “Final level of drug, PTX” value in data set [6] (single, two and three drug compositions, initial level 6.0 mg/mL) was found to be 5.8 ± 0.5 mg/mL.

Turning to `CO[C@H]1C[C@@H]2CC[C@@H](C)[C@@](O)(O2)C(=O)C(=O)N2CCCC[C@H]2C(=O)O[C@H]([C@H](C)C[C@@H]2CC[C@@H](O)[C@H](OC)C2)CC(=O)[C@H](C)/C=C(\C)[C@@H](O)[C@@H](OC)C(=O)[C@H](C)C[C@H](C)/C=C/C=C/C=C/1C` [RAPA, rapamycin], the “cytotoxic effect (in words)” value in data set [2] was “did not induce significant cytotoxic effect”.
